Key:
[1] = target: hERG channels (Homo sapiens (Human), UniProt Q12809); experiment: hERG Manual Patch Clamp Assay; type: cell-based; details: human, HEK 293 cells stably expressing hERG channels, pH 7.4, 1 uM, read-out: hERG EP % Inh @ 1 uM
[2] = target: hROMK (human Kir1.1) (Homo sapiens (Human), UniProt P48048); experiment: cell-based; details: CHO T-Rex hROMK stable cell line; thallium flux; 10-point concentration response curve; read-out: Human ROMK Th Flux IC50
Sequence of hROMK (human Kir1.1) (P48048 whole entry): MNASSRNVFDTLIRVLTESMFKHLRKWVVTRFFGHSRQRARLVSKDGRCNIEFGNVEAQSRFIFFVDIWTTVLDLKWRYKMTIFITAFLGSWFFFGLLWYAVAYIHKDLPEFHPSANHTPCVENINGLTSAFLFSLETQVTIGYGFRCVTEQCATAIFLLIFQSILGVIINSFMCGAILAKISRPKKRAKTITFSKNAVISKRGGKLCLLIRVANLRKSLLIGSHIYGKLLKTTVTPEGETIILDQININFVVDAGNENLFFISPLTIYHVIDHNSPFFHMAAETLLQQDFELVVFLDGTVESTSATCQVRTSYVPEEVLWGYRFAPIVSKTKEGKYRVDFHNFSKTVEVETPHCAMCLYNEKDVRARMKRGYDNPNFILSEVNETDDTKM

Sequence of hERG channels (Q12809 whole entry): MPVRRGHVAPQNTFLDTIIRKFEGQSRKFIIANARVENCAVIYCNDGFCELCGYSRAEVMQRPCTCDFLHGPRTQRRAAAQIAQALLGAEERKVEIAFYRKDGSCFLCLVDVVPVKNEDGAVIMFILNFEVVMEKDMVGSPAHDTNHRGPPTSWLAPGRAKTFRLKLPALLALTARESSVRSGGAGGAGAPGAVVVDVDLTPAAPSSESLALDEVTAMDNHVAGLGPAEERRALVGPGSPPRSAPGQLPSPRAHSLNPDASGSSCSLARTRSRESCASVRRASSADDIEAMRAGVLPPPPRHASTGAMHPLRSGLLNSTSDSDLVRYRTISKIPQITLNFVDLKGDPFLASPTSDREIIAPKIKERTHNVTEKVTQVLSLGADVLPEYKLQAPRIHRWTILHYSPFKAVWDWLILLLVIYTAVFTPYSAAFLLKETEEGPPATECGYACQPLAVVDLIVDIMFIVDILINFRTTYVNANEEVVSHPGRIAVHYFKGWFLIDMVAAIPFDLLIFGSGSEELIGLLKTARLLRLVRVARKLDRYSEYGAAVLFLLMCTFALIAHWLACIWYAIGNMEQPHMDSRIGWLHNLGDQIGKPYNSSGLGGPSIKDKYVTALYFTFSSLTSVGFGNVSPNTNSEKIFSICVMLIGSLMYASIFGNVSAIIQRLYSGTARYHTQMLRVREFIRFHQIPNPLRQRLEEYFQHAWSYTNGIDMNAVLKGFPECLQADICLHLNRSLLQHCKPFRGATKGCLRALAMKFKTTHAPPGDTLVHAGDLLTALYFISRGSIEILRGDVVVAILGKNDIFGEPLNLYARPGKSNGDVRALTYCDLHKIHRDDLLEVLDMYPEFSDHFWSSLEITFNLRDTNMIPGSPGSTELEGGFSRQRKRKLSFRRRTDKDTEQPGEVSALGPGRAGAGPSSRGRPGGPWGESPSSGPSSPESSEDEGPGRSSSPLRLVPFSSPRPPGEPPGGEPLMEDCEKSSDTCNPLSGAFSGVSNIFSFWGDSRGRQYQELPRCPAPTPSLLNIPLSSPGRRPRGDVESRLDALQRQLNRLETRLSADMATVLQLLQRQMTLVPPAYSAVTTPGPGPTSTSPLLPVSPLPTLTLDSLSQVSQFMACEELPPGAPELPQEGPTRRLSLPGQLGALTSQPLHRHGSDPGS

Cc1nn(-c2ccc(CN3CCN[C@H](c4ccc5c(c4C)COC5=O)C3)nc2)cc1C#N [Example 241-I, (R)-3-methyl-1-(6-((3-(4-methyl-1-oxo-1,3-dihydroisobenzofuran-5-yl)piperazin-1-yl)methyl)pyridin-3-yl)-1H-pyrazole-4-carbonitrile]
inhibition at 1 µM [1]: 18%
IC50 [2]: 41 nM

COc1cc(-n2cc(CN3C[C@@H](c4ccc5c(c4C)COC5=O)N[C@@H](C)C3)nn2)nc(C)c1C#N [Example 86-I, 4-methoxy-2-methyl-6-(4-(((3S,5R)-3-methyl-5-(4-methyl-1-oxo-1,3-dihydroisobenzofur-an-5-yl)piperazin-1-yl)methyl)-1H-1,2,3-triazol-1-yl)nicotinonitrile]
inhibition at 1 µM [1]: 8.8%
IC50 [2]: 64 nM

Cc1c([C@@H]2CN(Cc3cnn(-c4cccc(N(C)S(C)(=O)=O)n4)c3)C[C@H](C)N2)ccc2c1COC2=O [Example 252-I, N-methyl-N-(6-(4-(((3S,5R)-3-methyl-5-(4-methyl-1-oxo-1,3-dihydroisobenzofuran-5-yl)piperazin-1-yl)methyl)-1H-pyrazol-1-yl)pyridin-2-yl)methanesulfonamide]
inhibition at 1 µM [1]: 8.8%
IC50 [2]: 72 nM

Cc1cc(-n2cc(CN3CC(c4ccc5c(c4C)COC5=O)NC(C(F)F)C3)cn2)ncc1C#N (single isomer, unassigned) [Example 205-I, 6-(4-((3-(difluoromethyl)-5-(4-methyl-1-oxo-1,3-dihydroisobenzofuran-5-yl)piperazin-1-yl)methyl)-1H-pyrazol-1-yl)-4-methylnicotinonitrile]
inhibition at 1 µM [1]: 10%
IC50 [2]: 71 nM

Cc1cc(-n2cc(CN3CCO[C@H](c4ccc5c(c4C)COC5=O)C3)cn2)ccc1C#N [Example 46-I, (R)-2-methyl-4-(4-((2-(4-methyl-1-oxo-1,3-dihydroisobenzofuran-5-yl)morpholino)methyl)-1H-pyrazol-1-yl) benzonitrile]
inhibition at 1 µM [1]: 43%
IC50 [2]: 26 nM

Cc1cc(-n2cc(CN3CCCC(c4ccc5c(c4C)COC5=O)C3)cn2)ncc1C#N (single isomer, unassigned) [Example 197-I, 4-methyl-6-(4-((3-(4-methyl-1-oxo-1,3-dihydroisobenzofuran-5-yl)piperidin-1-yl)methyl)-1H-pyraozl-1-yl)nicotinonitrile]
inhibition at 1 µM [1]: 75%
IC50 [2]: 15 nM

Cc1nc(-n2ncc(CN3C[C@H](CO)N[C@H](c4ccc5c(c4C)COC5=O)C3)n2)ncc1C#N [Example 104-I, 2-(4-(((3R,5R)-3-(hydroxymethyl)-5-(4-methyl-1-oxo-1,3-dihydroisobenzofur-an-5-yl)piperazin-1-yl)methyl)-2H-1,2,3-triazol-2-yl)-4-methylpyrimidine-5-carbonitrile]
inhibition at 1 µM [1]: 3.4%
IC50 [2]: 36 nM

Cc1cc(-n2cc(CN3CC[C@@H](O)[C@H](c4ccc5c(c4C)COC5=O)C3)c(C(F)F)n2)ncc1C#N [Example 245-I, 6-(3-(difluoromethyl)-4-(((3R,4R)-4-hydroxy-3-(4-methyl-1-oxo-1,3-dihydroisobenzofuran-5-yl)piperidin-1-yl)methyl)-1H-pyrazol-1-yl)-4-methylnicotinonitrile]
inhibition at 1 µM [1]: 17%
IC50 [2]: 18 nM

COc1cc(-c2ccc(CN3CCO[C@H](c4ccc5c(c4C)COC5=O)C3)cn2)ncc1C#N [Example 35-I, (R)-4-methoxy-5′-((2-(4-methyl-1-oxo-1,3-di-hydroisobenzofuran-5-yl)morpholino)methyl)-[2,2′-bipyridine]-5-carbonitrile]
inhibition at 1 µM [1]: 20%
IC50 [2]: 120 nM

COc1nn(-c2ccc(CN3CCN[C@H](c4ccc5c(c4C)COC5=O)C3)cn2)cc1C#N [Example 223-I, (R)-3-methoxy-1-(5-((3-(4-methyl-1-oxo-1,3-dihydroisobenzofuran-5-yl)piperazin-1-yl)methyl)pyridin-2-yl)-1H-pyrazole-4-carbonitrile]
inhibition at 1 µM [1]: 56%
IC50 [2]: 18 nM

COc1cc(-c2cc(CN3C[C@@H](c4ccc5c(c4C)COC5=O)N[C@@H](C)C3)on2)ncc1C#N [Example 269-I, 4-methoxy-6-(5-(((3S,5R)-3-methyl-5-(4-methyl-1-oxo-1,3-dihydroisobenzofuran-5-yl)piperazin-1-yl)methyl)isoxazol-3-yl)nicotinonitrile]
inhibition at 1 µM [1]: 9.5%
IC50 [2]: 24 nM

Cc1c([C@@H]2CN(Cc3cnn(-c4cc(C#N)ccn4)c3)CCN2)ccc2c1COC2=O [Example 198-I, (R)-2-(4-((3-(4-methyl-1-oxo-1,3-dihydroisobenzofuran-5-yl)piperazin-1-yl)methyl)-1H-pyraozl-1-yl)isonicotinonitrile]
inhibition at 1 µM [1]: 0%
IC50 [2]: 83 nM

Cc1nc(-n2cc(CN3C[C@@H](c4ccc5c(c4C)COC5=O)N[C@@H](C)C3)cn2)ncc1C#N [Example 96-I, 4-methyl-2-(4-(((3S,5R)-3-methyl-5-(4-methyl-1-oxo-1,3-dihydroisobenzofur-an-5-yl)piperazin-1-yl)methyl)-1H-pyrazol-1-yl)pyrimidine-5-carbonitrile]
inhibition at 1 µM [1]: 9.6%
IC50 [2]: 27 nM

Cc1c([C@@H]2CN(Cc3cn(-c4ccc(C(F)F)nc4)cn3)C[C@H](C)N2)ccc2c1COC2=O [Example 134-I, 5-((2R,6S)-4-((1-(6-(difluoromethyl)pyridin-3-yl)-1H-imidazol-4-yl)methyl)-6-methylpiperazin-2-yl)-4-methylisobenzofuran-1(3H)-one]
inhibition at 1 µM [1]: 22%
IC50 [2]: 43 nM

COc1cc(N2CC(CN3C[C@@H](c4ccc5c(c4C)COC5=O)N[C@@H](C)C3)CC2=O)ncc1C#N (single isomer, unassigned) [Example 170-I]
inhibition at 1 µM [1]: 26%
IC50 [2]: 39 nM

Cc1cc(-n2cc(CN3CC(O)CC(c4ccc5c(c4C)COC5=O)C3)cn2)ncc1C#N (single isomer, unassigned) [Example 199-IV, 6-(4-((3-hydroxy-5-(4-methyl-1-oxo-1,3-dihydroisobenzofuran-5-yl)piperidin-1-yl)methyl)-1H-pyrazol-1-yl)-4-methylnicotinonitrile]
inhibition at 1 µM [1]: 22%
IC50 [2]: 16 nM

Cc1cc(-n2cc(CN3CC(O)C(c4ccc5c(c4C)COC5=O)C3)cn2)ncc1C#N (single isomer, unassigned) [Example 211-I, 6-(4-((3-hydroxy-4-(4-methyl-1-oxo-1,3-dihydroisobenzofuran-5-yl)pyrrolidin-1-yl)methyl)-1H-pyrazol-1-yl)-4-methylnicotinonitrile]
inhibition at 1 µM [1]: 58%
IC50 [2]: 30 nM

Cc1c([C@@H]2CN(Cc3cnc(-n4cnc(C#N)n4)nc3)CCN2)ccc2c1COC2=O [Example 217-I, (R)-1-(5-((3-(4-methyl-1-oxo-1,3-dihydroisobenzofuran-5-yl)piperazin-1-yl)methyl)pyrimidin-2-yl)-1H-1,2,4-triazole-3-carbonitrile]
inhibition at 1 µM [1]: 16%
IC50 [2]: 24 nM

Cc1cc(-n2cc(CN3CC(F)CC(c4ccc5c(c4C)COC5=O)C3)nn2)ncc1C#N (single isomer, unassigned) [Example 203-I, 6-(4-((3-fluoro-5-(4-methyl-1-oxo-1,3-dihydroisobenzofuran-5-yl)piperidin-1-yl)methyl)-1H-1,2,3-triaozl-1-yl)-4-methylnicotinonitrile]
inhibition at 1 µM [1]: 16%
IC50 [2]: 43 nM

Cc1cc(N2CCC(CN3CCN[C@H](c4ccc5c(c4C)COC5=O)C3)C2)ncc1C#N (single isomer, unassigned) [Example 156-I]
inhibition at 1 µM [1]: 51%
IC50 [2]: 14 nM

Cc1cc(-n2cc(CN3CC[C@@H](O)[C@H](c4ccc5c(c4C)COC5=O)C3)nn2)ncc1C#N [Example 84-I, 6-(4-(((3R,4R)-4-hydroxy-3-(4-methyl-1-oxo-1,3-dihydroisobenzofuran-5-yl)piperidin-1-yl)methyl)-1H-1,2,3-triazol-1-yl)-4-methylnicotinonitrile]
inhibition at 1 µM [1]: 6.7%
IC50 [2]: 52 nM

Cc1cc(-n2cc(CN3CC[C@@H](O)[C@H](c4ccc5c(c4C)COC5=O)C3)n(C)c2=O)ncc1C#N [Example 250-I, 6-(4-(((3R,4R)-4-hydroxy-3-(4-methyl-1-oxo-1,3-dihydroisobenzofuran-5-yl)piperidin-1-yl)methyl)-3-methyl-2-oxo-2,3-dihydro-1H-imidazol-1-yl)-4-methylnicotinonitrile]
inhibition at 1 µM [1]: 20%
IC50 [2]: 27 nM

COc1cc(N2CC(CN3C[C@@H](c4ccc5c(c4C)COC5=O)N[C@@H](C)C3)N(C)C2=O)ncc1C#N (stereo partly drawn) [Example 274-I, 4-methoxy-6-(3-methyl-4-(((3S,5R)-3-methyl-5-(4-methyl-1-oxo-1,3-dihydroisobenzofuran-5-yl)piperazin-1-yl)methyl)-2-oxoimidazolidin-1-yl)nicotinonitrile]
inhibition at 1 µM [1]: 43%
IC50 [2]: 58 nM

Cc1cc(-n2cc(CN3CCN[C@H](c4ccc5c(c4C)COC5=O)C3)c(C3CC3)n2)ncc1C#N [Example 237-I, (R)-6-(3-cyclopropyl-4-((3-(4-methyl-1-oxo-1,3-dihydroisobenzofuran-5-yl)piperazin-1-yl)methyl)-1H-pyrazol-1-yl)-4-methylnicotinonitrile]
inhibition at 1 µM [1]: 37%
IC50 [2]: 69 nM

Cc1cn(-c2ncc(CN3CCN[C@H](c4ccc5c(c4C)COC5=O)C3)cc2F)cn1 [Example 144-I, (R)-5-(4-((5-fluoro-6-(4-mehtyl-1H-imidazol-1-yl)pyridin-3-yl)methyl)piperazin-2-yl)-4-methylisobenzofuran-1(3H)-one]
inhibition at 1 µM [1]: 7.8%
IC50 [2]: 24 nM

COc1cc(-c2ccc(CN3CCN[C@H](c4ccc5c(c4C)COC5=O)C3)cn2)ncc1C#N [Example 63-I, (R)-4-methoxy-5′-((3-(4-methyl-1-oxo-1,3-di-hydroisobenzofuran-5-yl)piperazin-1-yl)methyl)-[2,2′-bipyridine]-5-carbonitrile]
inhibition at 1 µM [1]: 23%
IC50 [2]: 60 nM

— US10501449B2 (priority 2018, dated 2019)
